Molecular target: T1, FruASc (Staphylococcus carnosus, UniProt Q07159)
T1 construct: gene fda; recombinant from pETScFruA, E. coli
Assay: LC-MS of aldol product in enzyme cascade
Format: biochemical
Details: DHAP made in situ; acetaldehyde or glyceraldehyde-3-phosphate 10 mM, pH 7.9, 22 °C

T1 sequence (Q07159 2-296): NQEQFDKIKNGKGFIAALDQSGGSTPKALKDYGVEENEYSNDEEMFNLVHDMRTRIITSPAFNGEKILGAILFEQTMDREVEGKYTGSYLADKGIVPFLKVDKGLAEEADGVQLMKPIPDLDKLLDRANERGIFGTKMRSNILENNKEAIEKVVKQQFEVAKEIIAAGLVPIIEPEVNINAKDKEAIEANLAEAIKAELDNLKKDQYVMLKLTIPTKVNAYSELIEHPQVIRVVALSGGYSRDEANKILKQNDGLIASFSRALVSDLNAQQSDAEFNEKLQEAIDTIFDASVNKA

For `O=C(CO)COP(=O)(O)O` [DHAP], the “LC-MS of aldol product in enzyme cascade” value was “as DHAP was consumed by the aldolase reaction, greater conversion to DHAP occurred”.

From publication PMC5675407, “Sugar analog synthesis by in vitro biocatalytic cascade: A comparison of alternative enzyme complements for dihydroxyacetone phosphate production as a precursor to rare chiral sugar synthesis” (PLoS ONE, 2017)
